Numbers after ± are expanded uncertainties.

This data set is described as follows: osmotic coefficient (dimensionless); mn = molality of the nth substance listed, in mol/kg. The following applies: 298.15 K, 100 kPa, Liquid, isopiestic method.

`[Cl-].[K+]` [potassium chloride] + O: the osmotic coefficient runs as follows: (m1 = 0.9956) 0.901 ± 0.011; (m1 = 2.002) 0.916 ± 0.011.
Regarding `[Na+].[OH-]` [sodium hydroxide] + O, the osmotic coefficient (m1 = 1.004) came to 0.9589 ± 0.0089 and the osmotic coefficient (m1 = 2.01) stood at 1.032 ± 0.0089.
